{"source": "paper PMC3568910", "about": "“P2X7 Receptor Activation Induces Reactive Oxygen Species Formation and Cell Death in Murine EOC13 Microglia” (Mediators of Inflammation, 2013)", "key": {"P2X7 [1]": {"target": "T1, P2X7 (Mus musculus, UniProt Q9Z1M0)", "T1 construct": "endogenous in cells; host or cells: EOC13 murine microglial cell line", "T1 sequence (Q9Z1M0 1-595)": "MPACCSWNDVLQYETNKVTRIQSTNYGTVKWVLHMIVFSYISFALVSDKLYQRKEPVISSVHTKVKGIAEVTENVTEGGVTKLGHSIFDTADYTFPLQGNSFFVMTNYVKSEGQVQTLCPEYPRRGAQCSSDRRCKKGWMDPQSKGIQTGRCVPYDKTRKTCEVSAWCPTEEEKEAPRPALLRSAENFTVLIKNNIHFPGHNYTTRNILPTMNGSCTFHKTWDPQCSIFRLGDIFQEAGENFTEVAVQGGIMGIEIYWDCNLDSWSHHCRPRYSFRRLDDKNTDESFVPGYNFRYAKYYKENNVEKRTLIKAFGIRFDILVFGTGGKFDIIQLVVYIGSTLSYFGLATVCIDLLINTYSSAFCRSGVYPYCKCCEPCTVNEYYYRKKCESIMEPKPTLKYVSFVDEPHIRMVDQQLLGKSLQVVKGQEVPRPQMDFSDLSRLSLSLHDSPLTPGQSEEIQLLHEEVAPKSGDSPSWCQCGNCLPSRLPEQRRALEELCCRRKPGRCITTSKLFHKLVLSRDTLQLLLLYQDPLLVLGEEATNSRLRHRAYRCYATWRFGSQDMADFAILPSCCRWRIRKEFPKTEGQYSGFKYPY", "experiment": "Fixed-time ethidium+ uptake assay (flow cytometry) in EOC13 microglial cells", "type": "cell-based, murine", "settings": "for impairment of ATP-induced ethidium+ uptake: 15 min preincubation"}, "P2X7 [2]": {"target": "T1, P2X7", "experiment": "Fixed-time ethidium+ uptake assay (flow cytometry) in J774 macrophage cells", "type": "cell-based, murine", "settings": "for ethidium+ uptake compared to absence of nucleotide: 5 min"}, "EOC13 cells [3]": {"tested_on": "EOC13 cells", "experiment": "Cell viability assessed by forward and side scatter (gated viable cells)", "type": "cell-based, murine", "settings": "for reduction of the amount of gated viable cells: ethidium+ uptake assay; for cell viability (forward and side scatter): 10 μM"}, "EOC13 cells [4]": {"tested_on": "EOC13 cells"}, "P2X7 [5]": {"target": "T1, P2X7", "experiment": "Fixed-time YO-PRO-1 2+ uptake assay (flow cytometry) in EOC13 microglial cells", "type": "cell-based, murine", "settings": "10 μM"}, "EOC13 cells [6]": {"tested_on": "EOC13 cells", "experiment": "NO formation assay (DAF-FM DA, flow cytometry) in EOC13 cells", "type": "cell-based, murine", "excerpt": "The medium was removed, and the cells were washed once."}, "EOC13 cells [7]": {"tested_on": "EOC13 cells", "experiment": "Cell morphology by DIC imaging", "type": "cell-based, murine", "procedure": "(§1) Following the 24 h incubations, cells were harvested from wells using 0.05% trypsin (5 min, 37°C) and washed once with Annexin-V binding medium (NaCl medium containing 5 mM CaCl2). Cells were then incubated with Annexin-V binding medium containing Annexin-V-Fluorescein and 7AAD at room temperature protected from light for 15 min. […] Quadrant markers were used to determine the percentage of Annexin-V^+/7AAD^−, Annexin-V^−/7AAD^+, and Annexin-V^+/7AAD^+ cells. In some experiments, cells prior to harvesting were visualised by DIC imaging to examine cell morphology, and DIC images captured as outlined in Section 2.8."}, "EOC13 cells [8]": {"tested_on": "EOC13 cells", "experiment": "cells", "settings": "Mus musculus, read-out: inhibition of ATP-induced ROS formation, EOC13 cells, 40 mM NAC, 30 min preincubation, 1.4 mM ATP, NaCl medium"}, "EOC13 cells [9]": {"tested_on": "EOC13 cells", "experiment": "cells", "type": "cell-based", "procedure": "as §1"}, "P2X7 [10]": {"tested_on": "P2X7", "parameters": "method as in PMID 18657557", "settings": "read-out: half maximal effective concentration (EC50) of ATP for P2X7 activation; cited from earlier work"}, "[11]": {"settings": "EOC13 cells, antagonist 30 μM, 1 mM ATP"}, "[12]": {"settings": "read-out: IC50 for impairment of 1 mM ATP-induced ethidium+ uptake, J774 cells, NaCl medium, 15 min preincubation, 1 mM ATP 5 min, 37°C"}}, "note": "Where “and” joins values, the source holds several entries; their conditions need not be identical. Identical values can stand only once. Entries after “also recorded” stand apart in the source; their conditions may differ. Like-named read-outs stand apart in the source and are kept apart here."}
{"molecule": "O=C1CSC(=O)N1C(CCc1ccncc1)COc1ccc(-c2cccc([N+](=O)[O-])c2)cc1", "note": "(centres unmarked) [AZ11645373]", "values": [{"measurement": "effect on basal ethidium+ uptake", "setting": "P2X7 [1]; EOC13 cells, absence of ATP, antagonist at concentration used (10-100 μM)", "value": "significantly altered"}, {"measurement": "impairment of ATP-induced ethidium+ uptake", "setting": "P2X7 [1]; [11]", "value": "99 ± 1", "unit": "%"}, {"measurement": "type of antagonism at the ATP concentration used", "setting": "P2X7 [2]; J774 cells, 1 mM ATP", "value": "partial antagonists"}, {"measurement": "IC50", "setting": "P2X7 [2]; [12]", "value": "1.5 ± 0.1", "unit": "µM"}, {"measurement": "reduction of the amount of gated viable cells", "setting": "EOC13 cells [3]; 30 μM", "value": "~ 30%"}]}
{"molecule": "CCOc1ccc(Nc2ccc(/C(=C3C=C/C(=[N+](/CC)Cc4cccc(S(=O)(=O)[O-])c4)C=C/3C)c3ccc(N(CC)Cc4cccc(S(=O)(=O)O)c4)cc3C)cc2)cc1", "note": "[BBG, Brilliant Blue G]", "values": [{"measurement": "impairment of ATP-induced ethidium+ uptake", "setting": "P2X7 [1]; [11]", "value": "75 ± 2", "unit": "%"}, {"measurement": "IC50", "setting": "P2X7 [2]", "value": "1.8 ± 0.2", "unit": "µM"}, {"measurement": "type of antagonism at the ATP concentration used", "setting": "P2X7 [2]; J774 cells, 1 mM ATP", "value": "partial antagonists"}]}
{"molecule": "Clc1cccc(-c2nnnn2Cc2cccnc2)c1Cl", "note": "[A438079]", "values": [{"measurement": "impairment of ATP-induced ethidium+ uptake", "setting": "P2X7 [1]; EOC13 cells, antagonist 100 μM, 1 mM ATP", "value": "90 ± 1", "unit": "%"}, {"measurement": "inhibition of ATP-induced ethidium+ uptake", "setting": "P2X7 [2]; J774 cells, antagonist 100 μM, 1 mM ATP", "value": "completely inhibited"}, {"measurement": "IC50", "setting": "P2X7 [2]; [12]", "value": "7.9 ± 0.4", "unit": "µM"}]}
{"molecule": "O=C(CC12CC3CC(CC(C3)C1)C2)Nc1cccc2nc(NCCNCCO)ccc12", "note": "[AZ10606120]", "values": [{"measurement": "inhibition of ATP-induced ROS formation", "setting": "EOC13 cells [4]; 10 μM, 15 min preincubation, 2 mM ATP, NaCl medium with 1 mM Ca2+", "value": "complete inhibition; also recorded: completely impaired"}, {"measurement": "inhibition of ATP-induced ROS formation", "setting": "EOC13 cells [4]; 10 μM, 15 min preincubation, 2 mM ATP, complete DMEM medium", "value": "completely inhibited"}, {"measurement": "effect on basal ROS formation", "setting": "EOC13 cells [4]; 10 μM, absence of ATP", "value": "did not significantly alter"}, {"measurement": "inhibition of ATP-induced ethidium+ uptake", "setting": "P2X7 [2]; J774 cells, antagonist 10 μM, 1 mM ATP", "value": "completely inhibited"}, {"measurement": "IC50", "setting": "P2X7 [2]; [12]", "value": "1 ± 0.1", "unit": "µM"}, {"measurement": "inhibition of ATP-induced YO-PRO-1 2+ uptake", "setting": "P2X7 [5]; 15 min preincubation, 1 mM ATP", "value": "complete inhibition"}, {"measurement": "effect on basal YO-PRO-1 2+ uptake", "setting": "P2X7 [5]; absence of ATP", "value": "did not significantly alter"}, {"measurement": "inhibition of ATP-induced NO formation", "setting": "EOC13 cells [6]; 10 μM, 15 min preincubation, 1.4 mM ATP", "value": "82 ± 11", "unit": "%"}, {"measurement": "effect on basal NO formation", "setting": "EOC13 cells [6]; 10 μM, absence of ATP", "value": "did not significantly alter"}, {"measurement": "cell viability (forward and side scatter)", "setting": "EOC13 cells [3]; NO assay", "value": "did not significantly alter"}, {"measurement": "cell viability (forward and side scatter)", "setting": "EOC13 cells [3]; ROS assay", "value": "did not significantly alter"}]}
{"molecule": "2′(3′)-O-(4-benzoylbenzoyl) ATP [BzATP]", "values": [{"measurement": "ethidium+ uptake compared to absence of nucleotide", "setting": "P2X7 [1]; EOC13 cells, 0.1 mM BzATP, 5 min", "value": "induce significant ethidium^+ uptake"}, {"measurement": "ethidium+ uptake compared to absence of nucleotide", "setting": "P2X7 [2]; J774 cells, 0.1 mM BzATP", "value": "induced significant ethidium^+ uptake"}]}
{"molecule": "c1ccc2c(c1)[I+]c1ccccc1-2", "note": "[DPI, diphenyleneiodonium]", "values": [{"measurement": "cell death on preincubation", "setting": "EOC13 cells [4]; 5–40 μM DPI, 30 min preincubation, data not shown", "value": "high amounts of cell death; also recorded: induced the death of EOC13 microglia"}]}
{"molecule": "CC(=O)N[C@@H](CS)C(=O)O", "note": "[NAC, N-acetyl-L-cysteine]", "values": [{"measurement": "inhibition of ATP-induced ROS formation", "setting": "EOC13 cells [4]; 40 mM NAC, 30 min preincubation, 1.4 mM ATP, NaCl medium", "value": 74, "unit": "%"}, {"measurement": "effect on ATP-associated morphological changes (DIC)", "setting": "EOC13 cells [7]; 40 mM NAC 90 min, 2 mM ATP final 45 min, then 24 h", "value": "prevented the morphological changes associated with ATP incubation"}, {"measurement": "effect on cell morphology (DIC)", "setting": "EOC13 cells [7]; ROS assay conditions, 40 mM NAC with or without 1.4 mM ATP", "value": "not altered by NAC"}, {"measurement": "effect on cell morphology (DIC), NAC alone", "setting": "EOC13 cells [7]; cell death assay conditions, 40 mM NAC 90 min, then 24 h", "value": "no effect on cell morphology"}, {"measurement": "inhibition at 40000 µM", "setting": "P2X7 [1]; P2X7, read-out: inhibition of ATP-induced ethidium+ uptake (pore formation)", "value": "30 ± 2", "unit": "%"}, {"measurement": "inhibition at 40000 µM", "setting": "EOC13 cells [8]", "value": "73.7 ± 0.3", "unit": "%"}, {"measurement": "effect on percentage of ATP-induced cell death", "setting": "EOC13 cells [9]; EOC13 cells, 40 mM NAC, 75 and 30 min preincubation followed by 15 and 60 min 2 mM ATP, respectively", "value": "had no effect"}, {"measurement": "inhibition at 40000 µM", "setting": "EOC13 cells [9]; Mus musculus, read-out: inhibition of ATP-induced cell death", "value": "99 ± 6", "unit": "%"}, {"measurement": "reduction of the amount of gated viable cells", "setting": "EOC13 cells [3]; incubation with 40 mM NAC and ATP together, not either compound alone", "value": "~ 40%"}]}
{"molecule": "Nc1ncnc2c1ncn2[C@@H]1O[C@H](COP(=O)(O)OP(=O)(O)OP(=O)(O)O)[C@@H](O)[C@H]1O", "note": "[ATP, adenosine-5′-triphosphate]", "values": [{"measurement": "ROS formation compared to absence of ATP", "setting": "EOC13 cells [4]; 575 μM ATP4- (1.4 or 2 mM ATP), NaCl medium in absence and presence of 1 mM Ca2+", "value": "induced significant ROS formation"}, {"measurement": "ROS formation compared to absence of ATP", "setting": "EOC13 cells [4]; 1.4 mM ATP, NaCl and KCl media", "value": "induced significant ROS formation"}, {"measurement": "ROS formation compared to absence of ATP", "setting": "EOC13 cells [4]; 1.4 mM ATP, NaCl medium, 15 min (NAC experiment control)", "value": "induced significant ROS formation"}, {"measurement": "ROS formation compared to absence of ATP", "setting": "EOC13 cells [4]; 1.4 mM ATP, absence and presence of 100 μM EGTA", "value": "significant but similar amounts of ROS formation"}, {"measurement": "MFI of ROS formation", "setting": "EOC13 cells [4]; 2 mM ATP, NaCl medium with 1 mM Ca2+, 15 min, absence of ATP 5.18 ± 0.06", "value": "16.3 ± 0.6"}, {"measurement": "ATP concentrations inducing significant ROS formation", "setting": "EOC13 cells [4]; complete DMEM medium, 15 min", "value": "2 or 3 but not 1 mM ATP"}, {"measurement": "ethidium+ uptake compared to absence of nucleotide", "setting": "P2X7 [1]; EOC13 cells, 1 mM ATP, 5 min", "value": "induce significant ethidium^+ uptake"}, {"measurement": "EC50", "setting": "P2X7 [1]; EOC13 cells, NaCl medium, 5 min, 37°C, read-out: EC50 for induction of ethidium+ uptake", "value": "~130 µM and 130 µM"}, {"measurement": "ethidium+ uptake compared to absence of nucleotide", "setting": "P2X7 [2]; J774 cells, 1 mM ATP", "value": "induced significant ethidium^+ uptake"}, {"measurement": "EC50", "setting": "P2X7 [10]", "value": "100 to 300", "unit": "µM"}, {"measurement": "duration of transient ATP incubation giving significant cell death", "setting": "EOC13 cells [9]; EOC13 cells, 2 mM ATP, then fresh medium 24 h", "value": "30 or 60 min but not 15 min and 30–60 but not 15 min"}, {"measurement": "ATP concentrations giving significantly higher total cell death than absence of ATP", "setting": "EOC13 cells [9]; EOC13 cells, complete DMEM medium, 24 h", "value": "2 or 3 mM ATP but not 1 mM ATP and 2 or 3 but not 1 mM ATP"}, {"measurement": "NO formation compared to absence of ATP", "setting": "EOC13 cells [6]; 1.4 mM ATP, 15 min, NaCl medium", "value": "induced significant NO formation"}]}
